Measured values from US6841167B1, “β-carboline pharmaceutical compositions” (Lilly Icos LLC., priority 1999, dated 2005).

Assays:
[1] = physical stability evaluation of solutions (microscope, drug crystals); format: physicochemical; settings: PEG 400, room temperature and 4° C.
Experimental: The solutions then were allowed to cool to room temperature (RT). A portion of each solution was mixed with water (8 mg water per 100 mg solution) to mimic the water migration and retention processes occurring in a soft capsule. The solutions (with and without water) were stored at RT (room temperature) and at 4° C. for physical stability evaluation.

[2] = bioavailability of Compound A; settings: in vivo

With `CN1CC(=O)N2[C@H](c3ccc4c(c3)OCO4)c3[nH]c4ccccc4c3C[C@@H]2C1=O` (relative stereo) [Compound A, (6R-trans)-6-(1,3-benzodioxol-5-yl)-2,3,6,7,12,12a-hexahydro-2-methylpyrazino-[1′, 2′:1, ]pyrido[3,4-b]indole-1,4-dione] the “drug concentration at which PEG 400 solution formulation is physically stable with respect to drug crystallization” value [1] was at most 2.8% and the bioavailability [2] was “low and inconsistent bioavailability”.
